From ChEMBL document CHEMBL6182926, “Design, Synthesis, and Biological Activity Evaluation of Deuterated Diphenyl Azole Alcohol-Based CYP51 Inhibitors” (J Med Chem, 2025)
≈ marks a conversion by molar mass, not a printed value.

Experiments:
Format in all cases: functional
Nakaseomyces glabratus = assay: Antifungal activity against Clinical isolate Candida glabrata assessed as inhibition of visible growth
Candida tropicalis = assay: Antifungal activity against Candida tropicalis CGMCC 2.3739 assessed as inhibition of visible growth
Candida parapsilosis = assay: Antifungal activity against Candida parapsilosis GIM 2.190 assessed as inhibition of visible growth; conditions: Lodderomyces parapsilosis
Candida albicans [1] = assay: Antifungal activity against Candida albicans SC 5314 assessed as inhibition of visible growth
Pichia kudriavzevii = assay: Antifungal activity against Candida krusei AS 2.1045 assessed as inhibition of visible growth
Candida albicans [2] = assay: Antifungal activity against Candida albicans CPCC 400616 assessed as inhibition of visible growth
Cryptococcus neoformans = assay: Antifungal activity against Cryptococcus neoformans CGMCC 2.3161 assessed as inhibition of visible growth

| Structure (SMILES) | MIC80 (Nakaseomyces glabratus) [µg/mL] | MIC80 (Candida tropicalis) [µg/mL] | MIC80 (Candida parapsilosis) [µg/mL] | MIC80 (Candida albicans [1]) [µg/mL] | MIC80 (Pichia kudriavzevii) [µg/mL] | MIC80 (Candida albicans [2]) [µg/mL] | MIC80 (Cryptococcus neoformans) [µg/mL] |
| --- | --- | --- | --- | --- | --- | --- | --- |
| CN(Cc1ccc(-c2ccc(Cl)cc2)cc1F)CC(O)(Cn1cncn1)c1ccc(F)cc1F (stereo not given) | 0.025 (≈ 0.0513 µM) | 0.006 (≈ 0.0123 µM) | 0.006 (≈ 0.0123 µM) | 0.006 (≈ 0.0123 µM) | 0.025 (≈ 0.0513 µM) | 0.006 (≈ 0.0123 µM) | 0.012 (≈ 0.0246 µM) |
| CN(Cc1ccc(-c2ccc(Cl)cc2)cn1)CC(O)(Cn1cncn1)c1ccc(F)cc1F (stereo not given) | 0.05 (≈ 0.106 µM) | 0.012 (≈ 0.0255 µM) | 0.006 (≈ 0.0128 µM) | 0.012 (≈ 0.0255 µM) | 0.05 (≈ 0.106 µM) | 0.012 (≈ 0.0255 µM) | 0.025 (≈ 0.0532 µM) |
| CN(Cc1ccc(-c2ccc(C(F)(F)F)cc2)s1)CC(O)(Cn1cncn1)c1ccc(F)cc1F (stereo not given) | 0.4 (≈ 0.787 µM) | 0.006 (≈ 0.0118 µM) | 0.006 (≈ 0.0118 µM) | 0.012 (≈ 0.0236 µM) | 0.1 (≈ 0.197 µM) | 0.006 (≈ 0.0118 µM) | 0.1 (≈ 0.197 µM) |
| CN(Cc1ccc(-c2ccc(Cl)cc2)o1)CC(O)(Cn1cncn1)c1ccc(F)cc1F (stereo not given) | 0.4 (≈ 0.872 µM) | 0.025 (≈ 0.0545 µM) | 0.1 (≈ 0.218 µM) | 0.025 (≈ 0.0545 µM) | 0.4 (≈ 0.872 µM) | 0.05 (≈ 0.109 µM) | 0.4 (≈ 0.872 µM) |
| CN(Cc1ccc(-c2ccc(Cl)c(F)c2)cc1)CC(O)(Cn1cncn1)c1ccc(F)cc1F (stereo not given) | 0.025 (≈ 0.0513 µM) | 0.006 (≈ 0.0123 µM) | 0.006 (≈ 0.0123 µM) | 0.006 (≈ 0.0123 µM) | 0.012 (≈ 0.0246 µM) | 0.006 (≈ 0.0123 µM) | 0.012 (≈ 0.0246 µM) |
| CN(Cc1ccc(-c2ccc(OC(F)(F)F)cc2)nc1)CC(O)(Cn1cncn1)c1ccc(F)cc1F (stereo not given) | 0.05 (≈ 0.0963 µM) | 0.025 (≈ 0.0481 µM) | 0.006 (≈ 0.0116 µM) | 0.012 (≈ 0.0231 µM) | 0.025 (≈ 0.0481 µM) | 0.012 (≈ 0.0231 µM) | 0.05 (≈ 0.0963 µM) |
| CN(Cc1ccc(-c2ccc(Cl)cc2F)cc1)CC(O)(Cn1cncn1)c1ccc(F)cc1F (stereo not given) | 0.025 (≈ 0.0513 µM) | 0.006 (≈ 0.0123 µM) | 0.006 (≈ 0.0123 µM) | 0.006 (≈ 0.0123 µM) | 0.012 (≈ 0.0246 µM) | 0.006 (≈ 0.0123 µM) | 0.012 (≈ 0.0246 µM) |
| CN(Cc1ccc(-c2ccc(OC(F)(F)F)cc2)cc1)CC(O)(Cn1cncn1)c1ccc(F)cc1F (stereo not given) | 0.025 (≈ 0.0482 µM) | 0.012 (≈ 0.0231 µM) | 0.006 (≈ 0.0116 µM) | 0.012 (≈ 0.0231 µM) | 0.025 (≈ 0.0482 µM) | 0.012 (≈ 0.0231 µM) | 0.012 (≈ 0.0231 µM) |
| C[C@@H](N(C)Cc1ccc(-c2ccc(Cl)cc2)cc1)[C@](O)(Cn1cncn1)c1ccc(F)cc1F | 0.012 (≈ 0.0248 µM) | 0.006 (≈ 0.0124 µM) | 0.006 (≈ 0.0124 µM) | 0.006 (≈ 0.0124 µM) | 0.012 (≈ 0.0248 µM) | 0.006 (≈ 0.0124 µM) | 0.012 (≈ 0.0248 µM) |
| Cc1ccc(-c2ccc(CN(C)CC(O)(Cn3cncn3)c3ccc(F)cc3F)nc2)cc1 (stereo not given) | 1.6 (≈ 3.56 µM) | 0.012 (≈ 0.0267 µM) | 0.1 (≈ 0.222 µM) | 0.25 (≈ 0.556 µM) | 0.2 (≈ 0.445 µM) | 0.012 (≈ 0.0267 µM) | 0.8 (≈ 1.78 µM) |
| CN(Cc1ccc(-c2ccc(Cl)cc2)c(F)c1)CC(O)(Cn1cncn1)c1ccc(F)cc1F (stereo not given) | 0.025 (≈ 0.0513 µM) | 0.006 (≈ 0.0123 µM) | 0.006 (≈ 0.0123 µM) | 0.006 (≈ 0.0123 µM) | 0.025 (≈ 0.0513 µM) | 0.006 (≈ 0.0123 µM) | 0.012 (≈ 0.0246 µM) |
| CN(Cc1cnc(-c2ccc(OC(F)(F)F)cc2)s1)CC(O)(Cn1cncn1)c1ccc(F)cc1F (stereo not given) | 0.2 (≈ 0.381 µM) | 0.006 (≈ 0.0114 µM) | 0.05 (≈ 0.0951 µM) | 0.025 (≈ 0.0476 µM) | 0.1 (≈ 0.19 µM) | 0.025 (≈ 0.0476 µM) | 0.1 (≈ 0.19 µM) |
| CN(Cc1ccc(-c2ccccc2Cl)cn1)CC(O)(Cn1cncn1)c1ccc(F)cc1F (stereo not given) | 0.8 (≈ 1.7 µM) | 0.012 (≈ 0.0255 µM) | 0.025 (≈ 0.0532 µM) | 0.025 (≈ 0.0532 µM) | 0.4 (≈ 0.851 µM) | 0.1 (≈ 0.213 µM) | 0.1 (≈ 0.213 µM) |
| CN(Cc1ccc(-c2ccc(OCC(F)(F)F)cc2)cn1)CC(O)(Cn1cncn1)c1ccc(F)cc1F (stereo not given) | 0.1 (≈ 0.187 µM) | 0.012 (≈ 0.0225 µM) | 0.012 (≈ 0.0225 µM) | 0.012 (≈ 0.0225 µM) | 0.05 (≈ 0.0937 µM) | 0.012 (≈ 0.0225 µM) | 0.1 (≈ 0.187 µM) |
| CN(Cc1nc(-c2ccc(OC(F)(F)F)cc2)cs1)CC(O)(Cn1cncn1)c1ccc(F)cc1F (stereo not given) | 0.4 (≈ 0.761 µM) | 0.025 (≈ 0.0476 µM) | 0.025 (≈ 0.0476 µM) | 0.012 (≈ 0.0228 µM) | 0.2 (≈ 0.381 µM) | 0.025 (≈ 0.0476 µM) | 0.1 (≈ 0.19 µM) |
| CN(Cc1ccc(-c2cccc(Cl)c2)cn1)CC(O)(Cn1cncn1)c1ccc(F)cc1F (stereo not given) | 0.2 (≈ 0.426 µM) | 0.012 (≈ 0.0255 µM) | 0.012 (≈ 0.0255 µM) | 0.012 (≈ 0.0255 µM) | 0.1 (≈ 0.213 µM) | 0.012 (≈ 0.0255 µM) | 0.025 (≈ 0.0532 µM) |
| CN(Cc1ccc(-c2ccccc2F)cn1)CC(O)(Cn1cncn1)c1ccc(F)cc1F (stereo not given) | 0.8 (≈ 1.76 µM) | 0.012 (≈ 0.0265 µM) | 0.012 (≈ 0.0265 µM) | 0.012 (≈ 0.0265 µM) | 0.4 (≈ 0.882 µM) | 0.025 (≈ 0.0551 µM) | 0.1 (≈ 0.221 µM) |
| CN(Cc1ccc(-c2ccccc2)cn1)CC(O)(Cn1cncn1)c1ccc(F)cc1F (stereo not given) | 0.8 (≈ 1.84 µM) | 0.025 (≈ 0.0574 µM) | 0.025 (≈ 0.0574 µM) | 0.012 (≈ 0.0276 µM) | 0.2 (≈ 0.459 µM) | 0.025 (≈ 0.0574 µM) | 0.1 (≈ 0.23 µM) |
| CN(Cc1ccc(-c2ccc(F)cc2)cn1)CC(O)(Cn1cncn1)c1ccc(F)cc1F (stereo not given) | 0.4 (≈ 0.882 µM) | 0.012 (≈ 0.0265 µM) | 0.012 (≈ 0.0265 µM) | 0.012 (≈ 0.0265 µM) | 0.05 (≈ 0.11 µM) | 0.012 (≈ 0.0265 µM) | 0.1 (≈ 0.221 µM) |
| CN(Cc1ccc(-c2ccc(Cl)cc2)nc1)CC(O)(Cn1cncn1)c1ccc(F)cc1F (stereo not given) | 0.1 (≈ 0.213 µM) | 0.012 (≈ 0.0255 µM) | 0.006 (≈ 0.0128 µM) | 0.012 (≈ 0.0255 µM) | 0.025 (≈ 0.0532 µM) | 0.012 (≈ 0.0255 µM) | 0.05 (≈ 0.106 µM) |
